Like-named read-outs stand apart in the source and are kept apart here.
What was measured:
[1] = target: T1, HCV NS3/4A protease complexes (full-length hepatitis C NS3 protease enzyme with NS4A cofactor) (Hepatitis C virus genotype 1a, UniProt P27958); assay: Inhibition assay (enzymatic assay, depsipeptide substrate hydrolysis); type: biochemical; conditions: enzyme 1 nM, 25 μM NS4A cofactor, 0.5 μM substrate, 30° C., pH 7.5, model for competitive inhibition
T1 construct: full-length hepatitis C NS3 protease enzyme
T1 sequence (P27958 1027-1657, one chain of several): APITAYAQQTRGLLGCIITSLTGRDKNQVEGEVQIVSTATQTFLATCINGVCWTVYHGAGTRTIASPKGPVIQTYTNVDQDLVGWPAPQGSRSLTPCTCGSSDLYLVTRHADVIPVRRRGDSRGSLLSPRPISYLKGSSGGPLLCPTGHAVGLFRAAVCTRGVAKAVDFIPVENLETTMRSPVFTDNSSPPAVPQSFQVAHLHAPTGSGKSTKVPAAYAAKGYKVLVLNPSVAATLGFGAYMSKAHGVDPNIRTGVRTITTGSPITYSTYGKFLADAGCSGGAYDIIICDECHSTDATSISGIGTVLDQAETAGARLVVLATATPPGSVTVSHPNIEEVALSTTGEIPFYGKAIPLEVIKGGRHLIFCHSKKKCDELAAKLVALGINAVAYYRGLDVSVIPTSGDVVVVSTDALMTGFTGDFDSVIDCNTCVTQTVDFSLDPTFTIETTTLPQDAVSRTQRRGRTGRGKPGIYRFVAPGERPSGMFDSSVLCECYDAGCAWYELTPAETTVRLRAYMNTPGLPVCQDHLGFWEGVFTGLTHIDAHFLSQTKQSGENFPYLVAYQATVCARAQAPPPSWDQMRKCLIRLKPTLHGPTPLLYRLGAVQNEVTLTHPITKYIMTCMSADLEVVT
Protocol: [Landro, 1997 #Biochem 36 9340-9348]. […] The solutions were stored at −20° C. between measurements.
[Liu, 1999 Analytical Biochemistry 267 331-335].

[2] = tested on: HCV replicons (HCV type 1b, Huh-7 luc/neo cells); assay: Replicon assay (Huh-Luc cells, luciferase read-out); type: cell-based; conditions: Hepatitis C virus, Huh-7, 72 h
Excerpt: The compounds of formula (I) were examined for activity in the inhibition of HCV RNA replication in a cellular assay. […] The cellular assay was based on a bicistronic expression construct, as described by Lohmann et al. (1999) Science vol. 285 pp. 110-113 with modifications described by Krieger et al. (2001) Journal of Virology 75: 4614-4624, in a multi-target screening strategy. In essence, the method was as follows.
The assay utilized the stably transfected cell line Huh-7 luc/neo (hereafter referred to as Huh-Luc). This cell line harbors an RNA encoding a bicistronic expression construct comprising the wild type NS3-NS5B regions of HCV type 1b translated from an Internal Ribosome Entry Site (IRES) from encephalomyocarditis virus (EMCV), preceded by a reporter portion (FfL-luciferase), and a selectable marker portion (neo^R, neomycine phosphotransferase). The construct is bordered by 5′ and 3′ NTRs (non-translated regions) from HCV type 1b. Continued culture of the replicon cells in the presence of G418 (neo^R) is dependent on the replication of the HCV RNA. The stably transfected replicon cells that express HCV RNA, which replicates autonomously and to high levels, encoding inter alia luciferase, are used for screening the antiviral compounds.
The replicon cells were plated in 384 well plates in the presence of the test and control compounds which were added in various concentrations. Following an incubation of three days, HCV replication was measured by assaying luciferase activity (using standard luciferase assay substrates and reagents and a Perkin Elmer ViewLux™ ultraHTS microplate imager). Replicon cells in the control cultures have high luciferase expression in the absence of any inhibitor. The inhibitory activity of the compound on luciferase activity was monitored on the Huh-Luc cells, enabling a doseresponse curve for each test compound.

[3] = rcm bond, Hoveyda-Grubbs 1st generation catalyst, 1,2-dichloroethane, 70.0 °C
[4] = Huh-Luc cells, incubation of three days, luciferase activity

| SMILES | Ki [1] [nM] | EC50 [2, 4] [nM] | further results |
| --- | --- | --- | --- |
| COc1ccc2c(O[C@@H]3C[C@H]4C(=O)N[C@]5(C(=O)O)C[C@H]5/C=C\CCCCN(C)C(=O)[C@@H]4C3)nc(-n3cccn3)cc2c1 [Compound 35, 17-[3-(pyrazol-1-yl)-6-methoxyisoquinolin-1-yloxy]-13-methyl-2,14-dioxo-3,13-diazatricyclo[13.3.0.0^4,6]octadec-7-ene-4-carboxylic acid] | > 1000 | – | EC50 [2]: 20900 nM |
| COc1ccc2c(O[C@@H]3C[C@H]4C(=O)N[C@]5(C(=O)O)C[C@H]5/C=C\CCCCN(C)C(=O)N4C3)nc(Cl)cc2c1 [Compound 42, 17-(3-chloro-6-methoxyisoquinolin-1-yloxy)-13-methyl-2,14-dioxo-3,13,15-triaza-tricyclo[13.3.0.0^4,6]octadec-7-ene-4-carboxylic acid] | 620 | > 10000 | – |
| COc1ccc2c(O[C@@H]3C[C@H]4C(=O)N[C@]5(C(=O)NS(=O)(=O)C6CC6)C[C@H]5/C=C\CCCCN(C)C(=O)[C@@H]4C3)nc(-n3cccn3)cc2c1 [Compound 36, N-[17-[3-(pyrazol-1-yl)-6-methoxyisoquinolin-1-yloxy]-13-methyl-2,14-dioxo-3,13-diazatricyclo[13.3.0.0^4,6]octadec-7-ene-4-carbonyl]-(cyclopropyl) sulfonamide] | 0.7 | 72 | – |
| COc1ccc2c(OC3CC4C(=O)NC5(C(=O)O)CC5C=CCCCCN(C)C(=O)C4C3)nc(-c3nc(C4CC4)cs3)cc2c1 (stereo not shown) [Compound 29, 17-[3-(4-cyclopropylthiazol-2-yl)-6-methoxy-isoquinolin-1-yloxy]-13-methyl-2,14-dioxo-3,13-diazatricyclo[13.3.0.0^4,6]octadec-7-ene-4-carboxylic acid] | 150 | > 10000 | – |
| CCOC(=O)C12CC1C=CCCCCN(C)C(=O)N1CC(OC(=O)c3ccc([N+](=O)[O-])cc3)CC1C(=O)N2 (stereo not shown) | – | – | ring closure, yield of all isomers ([3]; from C=CCCCCN(C)C(=O)N1CC(OC(=O)c2ccc([N+](=O)[O-])cc2)CC1C(=O)NC1(C(=O)OCC)CC1C=C, 1.64 mM, 20.0 h): 51% |
| COc1ccc2c(O[C@@H]3C[C@H]4C(=O)N[C@]5(C(=O)NS(=O)(=O)C6CC6)C[C@H]5/C=C\CCCCN(C)C(=O)[C@@H]4C3)nc(-c3nc(C(C)C)cs3)cc2c1 [Compound 32, N-[17-[3-(4-isopropylthiazol-2-yl)-6-methoxyisoquinolin-1-yloxy]-13-methyl-2,14-dioxo-3,13-diazatricyclo[13.3.0.0^4,6]octadec-7-ene-4-carbonyl](cyclopropyl)sulfonamide] | 1.4 | 3570 | – |
| COc1ccc2c(O[C@@H]3C[C@H]4C(=O)N[C@]5(C(=O)NS(=O)(=O)C6CC6)C[C@H]5/C=C\CCCCN(C)C(=O)N4C3)nc(-c3ccccc3)cc2c1 [Compound 56, N-[17-(3-phenyl-6-methoxyisoquinolin-1-yloxy)-13-methyl-2,14-dioxo-3,13,15-triaza-tricyclo[13.3.0.0^4,6]octadec-7-ene-4-carbonyl](cyclopropyl) sulfonamide] | 1.1 | – | EC50 [2]: 1030 nM |
| COc1ccc2c(O[C@@H]3C[C@H]4C(=O)N[C@]5(C(=O)NS(=O)(=O)C6CC6)C[C@H]5/C=C\CCCCN(C)C(=O)[C@@H]4C3)nc(-c3csc(NC(C)C)n3)cc2c1 [Compound 34, N-[17-[3-(2-isopropylaminothiazol-4-yl)-6-methoxyisoquinolin-1-yloxy]-13-methyl-2,14-dioxo-3,13-diazatricyclo[13.3.0.0^4,6]octadec-7-ene-4-carbonyl](cyclopropyl)sulfonamide] | 3.3 | 1640 | – |
| CCOC(=O)C12CC1C=CCCCCN(C)C(=O)N1CC(Oc3nc(Cl)cc4cc(OC)ccc34)CC1C(=O)N2 (stereo not shown) | – | – | ring closure, yield of all isomers ([3]; from C=CCCCCN(C)C(=O)N1CC(Oc2nc(Cl)cc3cc(OC)ccc23)CC1C(=O)NC1(C(=O)OCC)CC1C=C, 2.17 mM, 20.0 h): 58% |
| COc1ccc2c(O[C@@H]3C[C@H]4C(=O)N[C@]5(C(=O)O)C[C@H]5/C=C\CCCCN(C)C(=O)[C@@H]4C3)nc(-c3csc(NC(C)C)n3)cc2c1 [Compound 33, 17-[3-(2-isopropylaminothiazol-4-yl)-6-methoxyisoquinolin-1-yloxy]-13-methyl-2,14-dioxo-3,13-diazatricyclo[13.3.0.0^4,6]octadec-7-ene-4-carboxylic acid] | > 1000 | 47500 | – |
| COc1ccc2c(O[C@@H]3C[C@H]4C(=O)N[C@]5(C(=O)O)C[C@H]5/C=C\CCCCN(C)C(=O)N4C3)nc(-n3cccn3)cc2c1 [Compound 67, 17-(3-pyrazol-1-yl-6-methoxyisoquinolin-1-yloxy)-13-methyl-2,14-dioxo-3,13,15-triaza-tricyclo[13.3.0.0^4,6]octadec-7-ene-4-carboxylic acid] | > 1000 | > 10000 | – |
| COc1ccc2c(O[C@@H]3C[C@H]4C(=O)N[C@]5(C(=O)O)C[C@H]5/C=C\CCCCN(C)C(=O)[C@@H]4C3)nc(-c3nc(C(C)C)cs3)cc2c1 [Compound 31, 17-[3-(4-isopropylthiazol-2-yl)-6-methoxyisoquinolin-1-yloxy]-13-methyl-2,14-dioxo-3,13-diazatricyclo[13.3.0.0^4,6]octadec-7-ene-4-carboxylic acid] | 300 | > 10000 | – |
| COc1ccc2c(O[C@@H]3C[C@H]4C(=O)N[C@]5(C(=O)NS(=O)(=O)C6CC6)C[C@H]5/C=C\CCCCN(C)C(=O)N4C3)nc(-c3nc(C(C)C)cs3)cc2c1 [Compound 70, N-[17-[3-(4-isopropylthiazol-2-yl)-6-methoxyisoquinolin-1-yloxy]-13-methyl-2,14-dioxo-3,13,15-triaza-tricyclo[13.3.0.0^4,6]octadec-7-ene-4-carbonyl](cyclopropyl)sulfonamide] | 33 | 6730 | – |
| CCOC(=O)C12CC1C=CCCCCN(C)C(=O)C1CC(Oc3nc(-c4nc(C5CC5)cs4)cc4cc(OC)ccc34)CC1C(=O)N2 (stereo not shown) | – | – | ring closure, yield of all isomers ([3]; from C=CCCCCN(C)C(=O)C1CC(Oc2nc(-c3nc(C4CC4)cs3)cc3cc(OC)ccc23)CC1C(=O)NC1(C(=O)OCC)CC1C=C, 0.8 mM, 12.0 h): 85% |
| COc1ccc2c(O[C@@H]3C[C@H]4C(=O)N[C@]5(C(=O)O)C[C@H]5/C=C\CCCCN(C)C(=O)N4C3)nccc2c1 [Compound 55, 17-(6-methoxyisoquinolin-1-yloxy)-13-methyl-2,14-dioxo-3,13,15-triaza-tricyclo[13.3.0.0^4,6]octadec-7-ene-4-carboxylic acid] | > 1000 | > 100000 | – |
| COc1ccc2c(O[C@@H]3C[C@H]4C(=O)N[C@]5(C(=O)NS(=O)(=O)C6CC6)C[C@H]5/C=C\CCCCN(C)C(=O)[C@@H]4C3)nc(-c3nc(C4CC4)cs3)cc2c1 [Compound 30, N-[17-[3-(4-cyclopropylthiazol-2-yl)-6-methoxyisoquinolin-1-yloxy]-13-methyl-2,14-dioxo-3,13-diazatricyclo[13.3.0.0^4,6]octadec-7-ene-4-carbonyl](cyclopropyl)sulfonamide] | 1.7 | 3030 | – |
| COc1ccc2c(O[C@@H]3C[C@H]4C(=O)N[C@]5(C(=O)NS(=O)(=O)C6CC6)C[C@H]5/C=C\CCCCN(C)C(=O)N4C3)nc(-n3cccn3)cc2c1 [Compound 68, N-[17-(3-pyrazol-1-yl-6-methoxyisoquinolin-1-yloxy)-13-methyl-2,14-dioxo-3,13,15-triaza-tricyclo[13.3.0.0^4,6]octadec-7-ene-4-carbonyl](cyclopropyl)sulfonamide] | 2.5 | 165 | – |
| COc1ccc2c(O[C@@H]3C[C@H]4C(=O)N[C@]5(C(=O)NS(=O)(=O)C6CC6)C[C@H]5/C=C\CCCCN(C)C(=O)N4C3)nc(Cl)cc2c1 [Compound 43, N-[17-(3-chloro-6-methoxyisoquinolin-1-yloxy)-13-methyl-2,14-dioxo-3,13,15-triaza-tricyclo[13.3.0.0^4,6]octadec-7-ene-4-carbonyl](cyclopropyl) sulfonamide] | 15 | 2100 | – |
| CCOC(=O)C12CC1C=CCCCCN(C)C(=O)N1CC(Oc3ncc(Br)c4cc(OC)ccc34)CC1C(=O)N2 (stereo not shown) | – | – | ring closure, yield of all isomers ([3]; from C=CCCCCN(C)C(=O)N1CC(Oc2ncc(Br)c3cc(OC)ccc23)CC1C(=O)NC1(C(=O)OCC)CC1C=C, 1.55 mM, 20.0 h): 38% |

Reference: US8012939B2 (Tibotec Pharmaceuticals Ltd. Co, priority 2005, dated 2011)
